Several values for one entry are separate records, joined by “and”; a condition that tells them apart may be missing. Equal values may be shown once.
How the values were obtained:
Hela cells = experiment: Viability (MTS) of Hela cells; format: cell-based, human; details: for cell viability normalised to control wells (single replicate): in % (unit assumed)
Procedure: (§1) Suspension cells were treated 30 min after seeding, whereas adherent cells were allowed to adhere overnight and were then treated. Compound treatments were prepared in complete cell culture medium and 100 µl of 2× treatment-containing medium were added to each well. Complete cell culture medium without treatment was added in control wells, and wells containing medium without cells served as background. The outer wells of the 96-well plate were not used for treatment and were filled with 250 µl of PBS to reduce evaporation of medium from inner wells. Each compound and/or combination was tested at nine different concentrations with three replicates. The cell viability was measured after 72 h by tetrazolium-based MTS assay. MTS reagent (2 mg ml^–1 stock; cat. no. G1111, Promega) was freshly supplemented with phenazine methosulfate (PMS, 0.92 mg ml^–1 stock, cat. no. P9625, Sigma-Aldrich) in 20:1 ratio, and 20 µl of this mixture was added to each control and treatment well. The cells were incubated for 4 h at 37 °C and 5% CO2, and then the absorbance was recorded at 490 nm using Biotek’s Synergy Neo2 multimode plate reader (Biotek). The average absorbance value of background wells was subtracted from absorbance value of each control and treatment well, and percent cell viability ((At/A0) × 100)) was determined in each treatment well, where At is the absorbance value of the treatment well and A0 is the average absorbance value of control wells after background subtraction. The data were expressed as average percentage cell viability and fitted in non-linear regression curves using GraphPad Prism 7 (GraphPad Software, La Jolla, CA, USA).

[1] = target: T1, BCL-xL/PROTAC/VHL-ELOC-ELOB (VCB) ternary complex (Homo sapiens, UniProt P40337+Q07817); experiment: AlphaLISA ternary complex formation, cell-free, BCL-xL; format: binding; details: for AlphaLISA signal, BCL-xL/PROTAC/VCB: Fig. 3e raw Alpha reads
T1 construct: pGEX-6P-1-VHL(54-213) (pDL2200) was constructed through Gibson assembly method; made in house; host or cells: bacterial culture (LB broth, IPTG induction)
T1 sequence (Q07817 1-212 limits assumed): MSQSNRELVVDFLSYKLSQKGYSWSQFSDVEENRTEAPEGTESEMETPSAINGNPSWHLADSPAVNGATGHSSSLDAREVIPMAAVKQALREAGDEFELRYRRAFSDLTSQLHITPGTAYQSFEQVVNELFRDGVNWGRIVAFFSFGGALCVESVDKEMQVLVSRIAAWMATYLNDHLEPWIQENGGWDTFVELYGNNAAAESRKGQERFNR
T1 sequence (P40337 54-213 limits assumed): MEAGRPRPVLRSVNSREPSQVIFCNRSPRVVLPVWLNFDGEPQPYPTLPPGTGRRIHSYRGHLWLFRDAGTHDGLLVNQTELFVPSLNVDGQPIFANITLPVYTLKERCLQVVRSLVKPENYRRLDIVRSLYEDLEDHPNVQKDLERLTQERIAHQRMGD
T1 sequence (Q15369 17-112 partner limits assumed): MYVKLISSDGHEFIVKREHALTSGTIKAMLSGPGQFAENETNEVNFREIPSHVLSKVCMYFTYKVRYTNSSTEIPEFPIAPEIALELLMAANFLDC
T1 sequence (Q15370 whole entry partner): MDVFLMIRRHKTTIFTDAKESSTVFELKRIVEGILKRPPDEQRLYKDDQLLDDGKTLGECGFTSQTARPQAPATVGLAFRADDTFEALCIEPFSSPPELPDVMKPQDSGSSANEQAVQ
Method in brief: (§2)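 Cell-free AlphaLISA: 5 nM His-tagged BCL-xL or BCL-2 plus 5 nM GST-VCB incubated with fourfold serially diluted compound 30 min at room temperature. Glutathione donor and His acceptor beads (20 µg/ml each) then added for 15 and 45 min; AlphaLISA signal plotted against compound concentration.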

[2] = target: T2, BCL-2/PROTAC/VCB ternary complex (Homo sapiens, UniProt P10415+P40337); experiment: AlphaLISA ternary complex formation, cell-free, BCL-2; format: binding; details: for Alpha (Alpha Endpoint read, Bcl-2 ternary complex formation): raw plate signal, duplicate wells
T2 construct: pGEX-6P-1-VHL(54-213) (pDL2200) was constructed through Gibson assembly method; made in house; host or cells: bacterial culture (LB broth, IPTG induction)
T2 sequence (P10415 1-211 limits assumed): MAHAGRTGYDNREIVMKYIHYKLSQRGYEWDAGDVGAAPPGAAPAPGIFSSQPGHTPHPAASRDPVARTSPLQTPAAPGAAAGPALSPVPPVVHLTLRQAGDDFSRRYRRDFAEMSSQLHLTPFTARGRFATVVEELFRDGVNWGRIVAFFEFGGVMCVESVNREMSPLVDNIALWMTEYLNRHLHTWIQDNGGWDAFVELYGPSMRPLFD
T2 sequence (P40337 54-213 limits assumed): as the sequence (P40337 54-213 limits assumed) above
T2 sequence (Q15369 17-112 partner limits assumed): as the sequence (Q15369 17-112 partner limits assumed) above
T2 sequence (Q15370 whole entry partner): as the sequence (Q15370 whole entry partner) above
Method in brief: as §2

Kasumi-1 cells = experiment: Viability (MTS) of Kasumi-1 AML cells; format: cell-based, human; details: Kasumi, 24h, Fig. 7c
293T cells = experiment: Viability (MTS) of 293T cells; format: cell-based, human; details: normalised to own plate; for 293T cell viability, MTS absorbance 490 as percent of untreated control, mean of three wells: mean of 3 wells
Procedure: as §1

[3] = MTS absorbance 490, Conc 0.00137174 uM
[4] = MTS absorbance 490, Conc 0.00411523 uM
[5] = MTS absorbance 490, Conc 0.037037 uM
[6] = MTS absorbance 490, Conc 0.111111 uM
[7] = MTS absorbance 490, Conc 0.333333 uM

Cc1ncsc1-c1ccc([C@H](C)NC(=O)[C@@H]2C[C@@H](O)CN2C(=O)[C@@H](NC(=O)CCCCCCC(=O)N2CCN(C[C@]3(C)CCC(c4ccc(Cl)cc4)=C(CN4CCN(c5ccc(C(=O)NS(=O)(=O)c6ccc(N[C@H](CCN7CCOCC7)CSc7ccccc7)c(S(=O)(=O)C(F)(F)F)c6)cc5)CC4)C3)CC2)C(C)(C)C)cc1 [753b]
cell viability normalised to control wells (mean of three replicates) (Hela cells; [3]): 101.835
cell viability normalised to control wells (single replicate) (Hela cells; [3]): 103.801 and 94.6965 and 107.009
cell viability normalised to control wells (mean of three replicates) (Hela cells; [4]): 93.0491
cell viability normalised to control wells (single replicate) (Hela cells; [4]): 98.1647 and 87.1532 and 93.8295
cell viability normalised to control wells (mean of three replicates) (Hela cells; [5]): 95.159
cell viability normalised to control wells (single replicate) (Hela cells; [5]): 94.6965 and 88.7139 and 102.066
cell viability normalised to control wells (mean of three replicates) (Hela cells; [6]): 93.078
cell viability normalised to control wells (single replicate) (Hela cells; [6]): 90.1012 and 81.2572 and 107.876
cell viability normalised to control wells (mean of three replicates) (Hela cells; [7]): 93.8295
cell viability normalised to control wells (single replicate) (Hela cells; [7]): 79.8699 and 97.9913 and 103.627
cell viability normalised to control wells (mean of three replicates) (Hela cells; MTS absorbance 490, Conc 1 uM): 89.5809
cell viability normalised to control wells (single replicate) (Hela cells; MTS absorbance 490, Conc 1 uM): 76.4884 and 93.6561 and 98.5983
cell viability normalised to control wells (mean of three replicates) (Hela cells; MTS absorbance 490, Conc 3 uM): 87.6734
cell viability normalised to control wells (single replicate) (Hela cells; MTS absorbance 490, Conc 3 uM): 75.7081 and 83.5116 and 103.801
in vitro ternary complex formation with BCL-xL (in words) ([1]; AlphaLISA, cell-free, Fig. 2c, 3e): stronger ternary complexes with BCL-xL/2 than those by 753a and DT2216
AlphaLISA signal, BCL-xL/PROTAC/VCB ([1]; compound 0.19 nM): 52786 and 55133
AlphaLISA signal, BCL-xL/PROTAC/VCB ([1]; compound 0.76 nM): 140034 and 175918
AlphaLISA signal, BCL-xL/PROTAC/VCB ([1]; compound 3.05 nM): 554325 and 621989
AlphaLISA signal, BCL-xL/PROTAC/VCB ([1]; compound 12.21 nM): 1164205 and 1155712
AlphaLISA signal, BCL-xL/PROTAC/VCB ([1]; compound 48.83 nM): 1828094 and 1838568
AlphaLISA signal, BCL-xL/PROTAC/VCB ([1]; compound 195.31 nM): 1687174 and 1602581
AlphaLISA signal, BCL-xL/PROTAC/VCB ([1]; compound 781.25 nM): 724516 and 720957
AlphaLISA signal, BCL-xL/PROTAC/VCB ([1]; compound 3125 nM): 238805 and 237649
AlphaLISA signal, BCL-xL/PROTAC/VCB ([1]; compound 12500 nM): 37696 and 47526
AlphaLISA signal, BCL-xL/PROTAC/VCB ([1]; compound 50000 nM, 2 technical replicates): 26805 and 26614
in vitro ternary complex formation with BCL-2 (in words) ([2]; AlphaLISA, cell-free, Fig. 2d, 3f): stronger ternary complexes with BCL-xL/2 than those by 753a and DT2216
Alpha (Alpha Endpoint read, Bcl-2 ternary complex formation) ([2]; Conc. 0.0762939 nM): 175483 and 157446
Alpha (Alpha Endpoint read, Bcl-2 ternary complex formation) ([2]; Conc. 0.305176 nM): 174555 and 132830
Alpha (Alpha Endpoint read, Bcl-2 ternary complex formation) ([2]; Conc. 1.2207 nM): 345223 and 378556
Alpha (Alpha Endpoint read, Bcl-2 ternary complex formation) ([2]; Conc. 4.88281 nM): 1458903 and 1528033
Alpha (Alpha Endpoint read, Bcl-2 ternary complex formation) ([2]; Conc. 19.5312 nM): 3478424 and 3254843
Alpha (Alpha Endpoint read, Bcl-2 ternary complex formation) ([2]; Conc. 78.125 nM): 2950431 and 3084677
Alpha (Alpha Endpoint read, Bcl-2 ternary complex formation) ([2]; Conc. 312.5 nM): 1886162 and 2006989
Alpha (Alpha Endpoint read, Bcl-2 ternary complex formation) ([2]; Conc. 1250 nM): 474662 and 509499
Alpha (Alpha Endpoint read, Bcl-2 ternary complex formation) ([2]; Conc. 5000 nM): 83238 and 74082
Alpha (Alpha Endpoint read, Bcl-2 ternary complex formation) ([2]; Conc. 20000 nM): 44557 and 25949
Luminescence (raw plate reading) (Kasumi-1 cells; 2um (plate column 11)): 42731 and 33855 and 41105 and 35447
Luminescence (raw plate reading) (Kasumi-1 cells; 4um (plate column 12)): 25069 and 21488 and 20344 and 20760
293T cell viability, MTS absorbance 490 as percent of untreated control, mean of three wells (293T cells; 0.00137174 uM): 105.831
293T cell viability, MTS absorbance 490 as percent of untreated control, single replicate well (293T cells; 0.00137174 uM): 104.459 and 107.926 and 105.109
293T cell viability, MTS absorbance 490 as percent of untreated control, mean of three wells (293T cells; 0.00411523 uM): 107.998
293T cell viability, MTS absorbance 490 as percent of untreated control, single replicate well (293T cells; 0.00411523 uM): 111.934 and 109.117 and 102.943
293T cell viability, MTS absorbance 490 as percent of untreated control, mean of three wells (293T cells; 0.037037 uM): 108.72
293T cell viability, MTS absorbance 490 as percent of untreated control, single replicate well (293T cells; 0.037037 uM): 111.175 and 116.05 and 98.9348
293T cell viability, MTS absorbance 490 as percent of untreated control, mean of three wells (293T cells; 0.111111 uM): 112.8
293T cell viability, MTS absorbance 490 as percent of untreated control, single replicate well (293T cells; 0.111111 uM): 120.383 and 115.183 and 102.834
293T cell viability, MTS absorbance 490 as percent of untreated control, mean of three wells (293T cells; 0.333333 uM): 109.37
293T cell viability, MTS absorbance 490 as percent of untreated control, single replicate well (293T cells; 0.333333 uM): 118.975 and 109.225 and 99.9097
293T cell viability, MTS absorbance 490 as percent of untreated control, mean of three wells (293T cells; 1 uM): 114.606
293T cell viability, MTS absorbance 490 as percent of untreated control, single replicate well (293T cells; 1 uM): 117.133 and 117.566 and 109.117
293T cell viability, MTS absorbance 490 as percent of untreated control, mean of three wells (293T cells; 3 uM): 79.3284
293T cell viability, MTS absorbance 490 as percent of untreated control, single replicate well (293T cells; 3 uM): 74.5622 and 86.911 and 76.512

— paper PMC8617031, “Development of a BCL-xL and BCL-2 dual degrader with improved anti-leukemic activity,” (Nature Communications, 2021)
